Key:
Assay type in all cases: functional
ACHN = assay: Growth inhibition of human ACHN cells after 48 hrs by SRB protein assay
SK-MEL-28 = assay: Growth inhibition of human SK-MEL-28 cells after 48 hrs by SRB protein assay; conditions: SK-MEL-28, 48 h
HCC 2998 = assay: Growth inhibition of human HCC2998 cells after 48 hrs by SRB protein assay; conditions: HCC 2998, 48 h
M14 = assay: Growth inhibition of human M14 cells after 48 hrs by SRB protein assay; conditions: M14, 48 h
NCI-H460 [1] = assay: Growth inhibition of human NCI-H460 cells after 48 hrs by SRB protein assay; conditions: NCI-H460, 48 h
UACC-62 = assay: Growth inhibition of human UACC62 cells after 48 hrs by SRB protein assay; conditions: UACC-62, 48 h
HCT-116 = assay: Growth inhibition of human HCT116 cells after 48 hrs by SRB protein assay; conditions: HCT-116, 48 h
HCT-15 = assay: Growth inhibition of human HCT15 cells after 48 hrs by SRB protein assay; conditions: HCT-15, 48 h
NCI-H226 = assay: Growth inhibition of human NCI-H226 cells after 48 hrs by SRB protein assay; conditions: NCI-H226, 48 h
SK-MEL-5 = assay: Growth inhibition of human SK-MEL-5 cells after 48 hrs by SRB protein assay; conditions: SK-MEL-5, 48 h
LOX IMVI = assay: Growth inhibition of human LOX IMVI cells after 48 hrs by SRB protein assay
786-0 = assay: Growth inhibition of human 786-0 cells after 48 hrs by SRB protein assay; conditions: 786-0, 48 h
RPMI-8226 = assay: Growth inhibition of human RPMI8226 cells after 48 hrs by SRB protein assay; conditions: RPMI-8226, 48 h
OVCAR-5 = assay: Growth inhibition of human OVCAR5 cells after 48 hrs by SRB protein assay; conditions: OVCAR-5, 48 h
MOLT-4 = assay: Growth inhibition of human MOLT4 cells after 48 hrs by SRB protein assay; conditions: MOLT-4, 48 h
NCI/ADR-RES = assay: Growth inhibition of human NCI/ADR-RES cells after 48 hrs by SRB protein assay
UACC-257 = assay: Growth inhibition of human UACC257 cells after 48 hrs by SRB protein assay; conditions: UACC-257, 48 h
Hs-578T = assay: Growth inhibition of human HS578T cells after 48 hrs by SRB protein assay
RXF 393 = assay: Growth inhibition of human RXF393 cells after 48 hrs by SRB protein assay; conditions: RXF 393, 48 h
SW-620 = assay: Growth inhibition of human SW620 cells after 48 hrs by SRB protein assay; conditions: SW-620, 48 h
TK-10 = assay: Growth inhibition of human TK10 cells after 48 hrs by SRB protein assay; conditions: TK-10, 48 h
CCRF-CEM = assay: Growth inhibition of human CCRF-CEM cells after 48 hrs by SRB protein assay
HOP-62 = assay: Growth inhibition of human HOP62 cells after 48 hrs by SRB protein assay; conditions: HOP-62, 48 h
OVCAR-8 = assay: Growth inhibition of human OVCAR8 cells after 48 hrs by SRB protein assay; conditions: OVCAR-8, 48 h
HOP-92 = assay: Growth inhibition of human HOP92 cells after 48 hrs by SRB protein assay; conditions: HOP-92, 48 h
SF-295 = assay: Growth inhibition of human SF295 cells after 48 hrs by SRB protein assay; conditions: SF-295, 48 h
SF-268 = assay: Anticancer activity against human SF268 cells assessed as growth of cells at 100 uM relative to untreated cells
PC-3 = assay: Growth inhibition of human PC3 cells after 48 hrs by SRB protein assay; conditions: PC-3, 48 h
NCI-H460 [2] = assay: Anticancer activity against human NCI-H460 cells assessed as growth of cells at 100 uM relative to untreated cells
SN12C = assay: Growth inhibition of human SN12C cells after 48 hrs by SRB protein assay
MCF7 = assay: Growth inhibition of human MCF7 cells after 48 hrs by SRB protein assay; conditions: MCF7, 48 h
A549 = assay: Growth inhibition of human A549/ATCC cells after 48 hrs by SRB protein assay; conditions: A549, 48 h

CCOC(=O)c1ccc(NC(=O)CC2Sc3ncnn3C2=O)cc1 (configuration not stated)
GI50 (ACHN): 17.4 µM | TGI (ACHN; read-out: Log TGI (converted)): 31.6 µM | GI50 (SK-MEL-28): 91.2 µM | TGI (SK-MEL-28; read-out: Log TGI (converted)): > 100 µM | GI50 (HCC 2998): 18.2 µM | TGI (HCC 2998; read-out: Log TGI (converted)): 32.4 µM | GI50 (M14): 18.6 µM | TGI (M14; read-out: Log TGI (converted)): 34.7 µM | GI50 (NCI-H460 [1]): > 100 µM | TGI (NCI-H460 [1]; read-out: Log TGI (converted)): > 100 µM | GI50 (UACC-62): 40.7 µM | TGI (UACC-62; read-out: Log TGI (converted)): > 100 µM | GI50 (HCT-116): 15.8 µM | TGI (HCT-116; read-out: Log TGI (converted)): 29.5 µM | GI50 (HCT-15): 20.9 µM | TGI (HCT-15; read-out: Log TGI (converted)): 52.5 µM | GI50 (NCI-H226): 26.3 µM | TGI (NCI-H226; read-out: Log TGI (converted)): 66.1 µM | GI50 (SK-MEL-5): > 100 µM | TGI (SK-MEL-5; read-out: Log TGI (converted)): > 100 µM | GI50 (LOX IMVI): 18.2 µM | TGI (LOX IMVI; read-out: Log TGI (converted)): 35.5 µM | GI50 (786-0): 15.5 µM | TGI (786-0; read-out: Log TGI (converted)): 28.8 µM | GI50 (RPMI-8226): 4.57 µM | TGI (RPMI-8226; read-out: Log TGI (converted)): 9.77 µM | GI50 (OVCAR-5): 17 µM | TGI (OVCAR-5; read-out: Log TGI (converted)): 31.6 µM | GI50 (MOLT-4): 33.9 µM | TGI (MOLT-4; read-out: Log TGI (converted)): 66.1 µM | GI50 (NCI/ADR-RES): 18.2 µM | TGI (NCI/ADR-RES; read-out: Log TGI (converted)): 36.3 µM | GI50 (UACC-257): 87.1 µM | TGI (UACC-257; read-out: Log TGI (converted)): > 100 µM | GI50 (Hs-578T): > 100 µM | TGI (Hs-578T; read-out: Log TGI (converted)): > 100 µM | GI50 (RXF 393): 21.4 µM | TGI (RXF 393; read-out: Log TGI (converted)): 67.6 µM | GI50 (SW-620): 38.9 µM | TGI (SW-620; read-out: Log TGI (converted)): > 100 µM | GI50 (TK-10): 22.9 µM | TGI (TK-10; read-out: Log TGI (converted)): 55 µM | GI50 (CCRF-CEM): 24.5 µM | TGI (CCRF-CEM; read-out: Log TGI (converted)): 77.6 µM | GI50 (HOP-62): 21.4 µM | TGI (HOP-62; read-out: Log TGI (converted)): 47.9 µM | GI50 (OVCAR-8): > 100 µM | TGI (OVCAR-8; read-out: Log TGI (converted)): > 100 µM | GI50 (HOP-92): 19.5 µM | TGI (HOP-92; read-out: Log TGI (converted)): 47.9 µM | GI50 (SF-295): > 100 µM | TGI (SF-295; read-out: Log TGI (converted)): > 100 µM | Activity (SF-268): 8% | GI50 (PC-3): 18.2 µM | TGI (PC-3; read-out: Log TGI (converted)): 40.7 µM | Activity (NCI-H460 [2]): 0% | GI50 (SN12C): 26.3 µM | TGI (SN12C; read-out: Log TGI (converted)): 87.1 µM | GI50 (MCF7): 38.9 µM | TGI (MCF7; read-out: Log TGI (converted)): > 100 µM | GI50 (A549): > 100 µM | TGI (A549; read-out: Log TGI (converted)): > 100 µM

Reference: ChEMBL document CHEMBL1147193, “New 5-substituted thiazolo[3,2-b][1,2,4]triazol-6-ones: synthesis and anticancer evaluation” (2007)
